This passage reports EC50 results from patent US9820972B2, “Antiviral compounds highly effective as HCV-NS5A inhibitor” (priority 2013, dated 2017).

Structures are written as SMILES.

The EC50 is the concentration giving half of the maximal effect.

The test system of the first test is GT-1a of NS5A Replicon. As to the kind of experiment: HCV double reporter gene (Renilla luciferase) replicon assay, GT-1a. It is filed as cell-based, Hepatitis C virus (HCV). As to conditions: Hepatitis C virus, GT1A, GT-1a replicon; class symbols; read-out: EC50 For GT-1a of NS5A Replicon. The method, then:
Antiviral Assay for Inhibition Activity (EC50):
The study is completed by a new constructed double reporter genes replicon assay system, the capacity of viral replicon in infected cell is determined by detecting the reporter gene Renilla luciferase. The relationship of reporter genes, HCV RNA replicon and viral proteins is well linear. 8 gradient concentrations for 2-fold dilution, 3 wells, 3 times repetition and 1 or 2 control drugs are set to finally determine EC50 of compound.
THF was distilled from sodium metal and benzophenone. DCM, pentane and hexane were distilled form calcium hydride. Special raw material and intermediate in the invention were ordered by contract synthesis from Zannan SciTech Co., Let in China, others reagents were purchased from Shanghai reagent company, Aldrich, Acros etc. As intermediates or products during the synthesis is not required for the reaction and other tests the next step, the synthesis is repeated until a sufficient number of times. The invention of the prepared compounds of […] (HCV NS5A) inhibitory activity test was performed by CRO service units such as WuXi AppTec etc.
For orientation: A reporter such as luciferase makes a cellular process visible.
With `COC(=O)N[C@H](C(=O)N1CC(OC(=O)N2Cc3cc4c(cc3C2)OCO4)CC1c1nc(-c2ccc3c(c2)Cc2cc(-c4c[nH]c([C@@H]5CCCN5C(=O)[C@@H](NC(=O)OC)C(C)C)n4)ccc2-3)c[nH]1)C(C)C` (stereo partly drawn) [Compound 6az], the EC50 is 1 to 999 pM.

With `COC(=O)N[C@H](C(=O)N1CC=C[C@H]1c1ncc(-c2ccc(-c3ccc(-c4cnc([C@@H]5CN(S(=O)(=O)C6CC6)CN5C(=O)[C@@H](NC(=O)OC)C(C)C)[nH]4)cc3)cc2)[nH]1)C(C)C` [Compound 6da], the EC50 is 1 to 999 pM. Same read-out and setting: to `COC(=O)NC(C(=O)N1CCC[C@H]1c1nc(-c2cc3sc(-c4ccc(-c5c[nH]c(C6CN(C(=O)N7Cc8cc9c(cc8C7)OCO9)CN6C(=O)[C@@H](NC(=O)OC)C(C)C)n5)cc4)cc3s2)c[nH]1)c1ccccc1` (stereo partly drawn) [Compound 6fb] belongs 1 to 999 pM; to `COC(=O)N[C@H](C(=O)N1CCC[C@H]1c1ncc(-c2ccc(-c3ccc(-c4cnc([C@@H]5CN(C(=O)N6Cc7ccc(OC)c(OC)c7C6)CN5C(=O)[C@@H](NC(=O)OC)C(C)C)[nH]4)cc3)cc2)[nH]1)C(C)C` [Compound 6cq], 1000 to 49900 pM; to `CC(C)[C@H](NC(=O)OC1CCCC1)C(=O)N1CCC[C@H]1c1nc(-c2ccc(-c3ccc(-c4cnc([C@@H]5C[C@@H](OC(=O)N6Cc7ccc8c(c7C6)OCO8)CN5C(=O)[C@@H](NC(=O)OC5CCCC5)C(C)C)[nH]4)cc3)cc2)c[nH]1` [Compound 6h], more than 50000 pM. For the compound `COC(=O)N[C@H](C(=O)N1CC(OC(=O)N2Cc3ccc4c(c3C2)OCO4)CC1c1nc(-c2ccc(-c3ccc(-c4c[nH]c([C@@H]5CC6(CC6)CN5C(=O)[C@@H](NC(=O)OC)C(C)C)n4)cc3)cc2)c[nH]1)C(C)C` (stereo partly drawn) [Compound 6an], the EC50 lay within 1 to 999 pM. The same measure, in the same setting: to `COC(=O)N[C@H](C(=O)N1CC=C[C@H]1c1nc(-c2csc3c(-c4ccc(-c5c[nH]c(C6CCCN6C(=O)[C@H](NC(=O)OC)c6ccccc6)n5)cc4)csc23)c[nH]1)C(C)C` (stereo partly drawn) [Compound 6fy] belongs 1 to 999 pM. Still for that read-out and setting: to `COC(=O)N[C@H](C(=O)N1CN(C(=O)N2Cc3ccc(Cl)cc3C2)CC1c1nc(-c2ccc(-c3ccc(-c4c[nH]c([C@@H]5CCCN5C(=O)[C@@H](NC(=O)OC)C(C)C)n4)cc3)cc2)c[nH]1)C(C)C` (stereo partly drawn) [Compound 6au] belongs 1 to 999 pM. Turning to `COC(=O)N[C@H](C(=O)N1CN(C(=O)N2Cc3ccc(OC)cc3C2)CC1c1nc(-c2ccc(-c3ccc(-c4c[nH]c([C@@H]5CCCN5C(=O)[C@@H](NC(=O)OC)C(C)C)n4)cc3)cc2)c[nH]1)C(C)C` (stereo partly drawn) [Compound 6av], the EC50 lay in the range of 1 to 999 pM. On the same count and under the same terms, to `COC(=O)N[C@H](C(=O)N1CCCC1c1nc(-c2ccc(-c3ccc(-c4c[nH]c([C@@H]5CCCCN5C(=O)[C@@H](NC(=O)OC)C(C)C)n4)cc3)cc2)c[nH]1)C(C)C` (stereo partly drawn) [Compound 6ab] belongs 1 to 999 pM.

Regarding `COC(=O)N[C@H](C(=O)N1CN(C(=O)N2Cc3cc4c(cc3C2)OCO4)C[C@H]1c1ncc(-c2ccc(-c3cccc4c(-c5cnc([C@@H]6CCCN6C(=O)[C@@H](NC(=O)OC)C(C)C)[nH]5)cccc34)cc2)[nH]1)C(C)C` [Compound 6bv], the EC50 is more than 50000 pM. Still for that read-out and setting: to `COC(=O)N[C@@H](C(=O)N1CC=C[C@H]1c1ncc(-c2ccc(-c3ccc(-c4c[nH]c([C@@H]5CCCN5C(=O)[C@H](NC(=O)OC)c5ccccc5)n4)cc3)cc2)[nH]1)c1ccccc1` [Compound 6dz] belongs 1 to 999 pM; to `COC(=O)N[C@H](C(=O)N1CC=C[C@H]1c1ncc(-c2ccc(-c3ccc(-c4cnc([C@@H]5CCCN5C(=O)[C@@H](NC(=O)OC)C5CCCC5)[nH]4)cc3)cc2)[nH]1)C1CCCC1` [Compound 6dp], 1 to 999 pM. Turning to `COC(=O)N[C@H](C(=O)N1CC=C[C@H]1c1nc(-c2ccc(-c3ccc(-c4cnc([C@@H]5CC6(CN5C(=O)[C@@H](NC(=O)OC)C(C)C)OCCO6)[nH]4)cc3)cc2)c[nH]1)C(C)C` [Compound 6dt], the EC50 fell in the range of 1 to 999 pM. On the same count and under the same terms, to `COC(=O)N[C@@H](C(=O)N1CC=C[C@H]1c1ncc(-c2ccc(-c3cc4sc(-c5cnc([C@@H]6CCCN6C(=O)[C@H](NC(=O)OC)c6ccccc6)[nH]5)cc4[nH]3)cc2)[nH]1)c1ccccc1` [Compound 6fx] belongs 1 to 999 pM.

`CC(C)[C@H](NC(=O)OC1CCCC1)C(=O)N1CCC[C@H]1c1nc(-c2ccc(-c3ccc(-c4cnc([C@@H]5C[C@@H](OC(=O)N6Cc7cc8c(cc7C6)OCO8)CN5C(=O)[C@@H](NC(=O)OC5CCCC5)C(C)C)[nH]4)cc3)cc2)c[nH]1` [Compound 6r]: the EC50 is more than 50000 pM.

`COC(=O)N[C@H](C(=O)N1CCCCC1c1nc(-c2ccc(-c3ccc(-c4c[nH]c([C@@H]5COCCN5C(=O)[C@@H](NC(=O)OC)C(C)C)n4)cc3)cc2)c[nH]1)C(C)C` (stereo partly drawn) [Compound 6aj]: the EC50 lay within 1 to 999 pM. Same read-out and setting: to `CC(C)[C@H](NC(=O)OC(C)(C)C)C(=O)N1C[C@H](OC(=O)N2Cc3cccc(F)c3C2)CC1c1ncc(-c2ccc(-c3ccc(-c4c[nH]c([C@@H]5CCCN5C(=O)[C@@H](NC(=O)OC(C)(C)C)C(C)C)n4)cc3)cc2)[nH]1` (stereo partly drawn) [Compound 6t] belongs more than 50000 pM; to `COC(=O)N[C@H](C(=O)N1CN(C(=O)N2Cc3cccc(F)c3C2)CC1c1nc(-c2ccc(-c3ccc(-c4c[nH]c([C@@H]5CCCN5C(=O)[C@@H](NC(=O)OC)C(C)C)n4)cc3)cc2)c[nH]1)C(C)C` (stereo partly drawn) [Compound 6ar], 1 to 999 pM.

As for `COC(=O)N[C@H](C(=O)N1CN(C(=O)N2Cc3cc(OC)c(OC)cc3C2)CC1c1nc(-c2ccc(-c3ccc(-c4c[nH]c([C@@H]5CCCN5C(=O)[C@@H](NC(=O)OC)C(C)C)n4)cc3)cc2)c[nH]1)C(C)C` (stereo partly drawn) [Compound 6ax], the EC50 lay within 1 to 999 pM. With `COC(=O)N[C@H](C(=O)N1CCC[C@H]1c1nc(-c2ccc(-c3ccc(-c4cnc([C@@H]5C[C@@H](OC(=O)N6Cc7cccc(F)c7C6)CN5C(=O)[C@@H](NC(=O)OC(C)(C)C)C(C)C)[nH]4)cc3)cc2)c[nH]1)C(C)C` [Compound 6u], the 50% effective concentration (EC50) lay within 1000 to 49900 pM.

As to `CNC(=O)NC(C(=O)N1CC=C[C@H]1c1nc(-c2ccc(-c3ccc(-c4c[nH]c(C5CCCN5C(=O)[C@@H](NC(=O)OC)C(C)C)n4)cc3)cc2)c[nH]1)C(C)C` (stereo partly drawn) [Compound 6cj], the EC50 lay within 1 to 999 pM. For `COC(=O)N[C@H](C(=O)N1CC=C[C@H]1c1ncc(-c2ccc(-c3ccc(-c4cnc([C@@H]5CN(C(=O)OC)CN5C(=O)[C@@H](NC(=O)OC)C(C)C)[nH]4)cc3)cc2)[nH]1)C(C)C` [Compound 6db], the concentration giving a half-maximal response (EC50) lay in the range of 1 to 999 pM. Same read-out and setting: to `COC(=O)N[C@H](C(=O)N1CCC(O)[C@H]1c1ncc(-c2ccc(-c3ccc(-c4cnc([C@@H]5C=CCN5C(=O)[C@@H](NC(=O)OC)C(C)C)[nH]4)cc3)cc2)[nH]1)C(C)C` (stereo partly drawn) [Compound 6dr] belongs 1 to 999 pM; to `COC(=O)N[C@H](C(=O)N1CCC[C@H]1c1nc(-c2csc3c(-c4ccc(-c5cnc(C6C=CCN6C(=O)[C@H](NC(=O)OC)c6ccccc6)[nH]5)cc4)csc23)c[nH]1)C(C)C` (stereo partly drawn) [Compound 6fr], 1 to 999 pM. The same measure, in the same setting: to `COC(=O)N[C@@H](C(=O)N1CCCC1c1ncc(-c2ccc(-c3cc4sc(-c5cnc([C@@H]6CCCN6C(=O)[C@H](NC(=O)OC)c6ccccc6)[nH]5)cc4s3)cc2)[nH]1)c1ccccc1` (stereo partly drawn) [Ref-3, reference compound] belongs 1 to 999 pM; to `COC(=O)N[C@H](C(=O)N1CC2(C[C@H]1c1ncc(-c3ccc(-c4ccc(-c5c[nH]c([C@@H]6C=CCN6C(=O)[C@H](NC(=O)OC)c6ccccc6)n5)cc4)cc3)[nH]1)OCCO2)C(C)C` [Compound 6dw], 1 to 999 pM. Same read-out and setting: to `COC(=O)N[C@H](C(=O)N1CN(C(=O)N2Cc3ccc4c(c3C2)OCO4)CC1c1nc(-c2ccc(-c3ccc(-c4c[nH]c([C@@H]5CCCN5C(=O)[C@@H](NC(=O)OC)C(C)C)n4)cc3)cc2)c[nH]1)C(C)C` (stereo partly drawn) [Compound 6ae] belongs 1 to 999 pM. Turning to `COC(=O)N[C@H](C(=O)N1CCCC1c1nc(-c2ccc(-c3ccc(-c4c[nH]c([C@@H]5CCCN5C(=O)C5(NC(=O)OC)CC5)n4)cc3)cc2)c[nH]1)C(C)C` (stereo partly drawn) [Compound 6y], the EC50 lay within 1 to 999 pM.

Take `COC(=O)N[C@H](C(=O)N1C[C@@H](OC(=O)N2Cc3cc4c(cc3C2)OCO4)CC1c1nc(-c2ccc(-c3ccc(-c4c[nH]c([C@@H]5COCCN5C(=O)[C@@H](NC(=O)OC)C(C)C)n4)cc3)cc2)c[nH]1)C(C)C` (stereo partly drawn) [Compound 6ah]: the EC50 lay within 1 to 999 pM. Same read-out and setting: to `COC(=O)N[C@H](C(=O)N1CC(OC(=O)N2Cc3cc4c(cc3C2)OCO4)CC1c1nc2cc(-c3ccc4c(c3)C(F)(F)c3cc(-c5c[nH]c([C@@H]6CCCN6C(=O)[C@@H](NC(=O)OC)C(C)C)n5)ccc3-4)ccc2[nH]1)C(C)C` (stereo partly drawn) [Compound 6br] belongs 1 to 999 pM; to `COC(=O)N[C@H](C(=O)N1CC=C[C@H]1c1ncc(-c2ccc(-c3ccc(-c4cnc([C@@H]5CNCN5C(=O)[C@@H](NC(=O)OC)C(C)C)[nH]4)cc3)cc2)[nH]1)C(C)C` [Compound 6cv], 1 to 999 pM; to `COC(=O)N[C@H](C(=O)N1CN(C(=O)N2Cc3cc4c(cc3C2)OCO4)CC1c1nc(-c2cc3sc(-c4ccc(-c5c[nH]c([C@@H]6CCCN6C(=O)[C@@H](NC(=O)OC)C(C)C)n5)cc4)cc3s2)c[nH]1)C(C)C` (stereo partly drawn) [Compound 6fa], 1 to 999 pM.

The same test, now with this note: Hepatitis C virus, GT1A, read-out: EC50 For GT-1a of NS5A Replicon.
As to `COC(=O)N[C@H](C(=O)N1CC2(CC2)C[C@H]1c1nc(-c2ccc3c(c2)C(F)(F)c2cc(-c4ccc5[nH]c([C@@H]6[C@H]7CC[C@H](C7)N6C(=O)[C@@H](NC(=O)OC)C(C)C)nc5c4)ccc2-3)c[nH]1)C(C)C` [Ref-2, reference compound], the EC50 was 1 to 999 pM.

The test is the same for the next values; noted with them: Hepatitis C virus, genotype 1a / genotype 6a, read-out: EC50 for Replicon (pM) of GT-1a to GT-6a: 1a.
Take `COC(=O)N[C@@H](C(=O)N1CCCC1c1ncc(-c2ccc(-c3cc4sc(-c5cnc([C@@H]6CCCN6C(=O)[C@H](NC(=O)OC)c6ccccc6)[nH]5)cc4s3)cc2)[nH]1)c1ccccc1` (stereo partly drawn) [Ref-3, reference compound]: the EC50 amounted to 51 pM. As for `COC(=O)N[C@H](C(=O)N1CC2(CC2)C[C@H]1c1nc(-c2ccc3c(c2)C(F)(F)c2cc(-c4ccc5[nH]c([C@@H]6[C@H]7CC[C@H](C7)N6C(=O)[C@@H](NC(=O)OC)C(C)C)nc5c4)ccc2-3)c[nH]1)C(C)C` [Ref-2, reference compound], the EC50 was found to be 88 pM.
